How the values were obtained:
[1] = molecular target: bovine pancreatic DNase I (Bos taurus, UniProt P00639); test: in vitro DNase I inhibition assay (spectrophotometric, absorbance of oligonucleotides at 260 nm); assay type: biochemical
Description: Compounds 3a–c were included in an in vitro DNase I inhibition assay.
Evaluation of DNase I inhibition. In vitro determination of the inhibitory activity of compounds 3a–c against bovine pancreatic DNase I was performed using the spectrophotometric method described by Kolarević et al., which is based on measuring the absorbance of the formed oligonucleotides at 260 nm.

Sequence of bovine pancreatic DNase I (P00639 23-282): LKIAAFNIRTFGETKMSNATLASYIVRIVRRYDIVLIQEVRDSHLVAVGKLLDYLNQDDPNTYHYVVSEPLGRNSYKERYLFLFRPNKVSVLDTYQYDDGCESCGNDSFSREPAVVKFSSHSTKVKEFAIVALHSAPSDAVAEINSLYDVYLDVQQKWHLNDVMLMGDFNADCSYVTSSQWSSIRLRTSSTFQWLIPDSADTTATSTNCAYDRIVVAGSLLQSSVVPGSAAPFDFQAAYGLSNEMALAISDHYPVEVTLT

melting point | IC50 [1] | SMILES
139.8 to 141.2 °C | 54.5 ± 8.07 µM | CCOc1c(NCCc2cccnc2)c(=O)c1=O [Compound 3a]
– | 57.8 ± 9.67 µM | CCOc1c(NCCc2ccncc2)c(=O)c1=O [Compound 3b]
– | 48 ± 7.98 µM | CCOc1c(NC(C)Cc2cccnc2)c(=O)c1=O (centres unmarked) [Compound 3c, 3-Ethoxy-4-((1-(pyridin-3-yl)propan-2-yl)amino)cyclobut-3-ene-1,2-dione]
– | 358 ± 40.7 µM | CN(C)c1ccc(C(=C2C=CC(=[N+](C)C)C=C2)c2ccc(N(C)C)cc2)cc1 [crystal violet, reference compound]
